Results taken from US7829662B2, “Method of treating apoptosis and compositions thereof” (Dana Farber Cancer Institute, Inc., priority 2001, dated 2010).
“Also recorded” adds a separate entry of the source. Peptide text beside a SMILES is read from it. * marks the point of attachment. Cbz = O=C(OCc1ccccc1)*; CH2F = FC*

Experiments:
wt mitochondria [1] = experiment: Ascorbate/TMPD-driven respiration assay; assay type: biochemical, Balb/cJ mice; settings: 200 nmol Ca^2+ × mg protein^−1
Method: Symbols used are detailed in the legend. […] (a), no additions. […] Arrow, 6 mM ascorbate-Tris and 300 μM TMPD were added. Assays were developed to assess the amount of cytochrome c freely available in the IMS (FIGS. 3A, B). […] After the indicated time, 400 pmol CCCP and 1 nmol antimycin A×mg protein^−1 were added, and the reaction transferred to a Clark type oxygen electrode chamber. Final volume was 1 ml, 25° C. After 2 min, 6 mM ascorbate was added, followed after a further 3 min by 300 μM TMPD. The ascorbate-driven O2 consumption rate over the total TMPD-driven rate is plotted as a percentage of the ratio in the untreated mitochondria.

mitochondria [2] = experiment: Mitochondrial swelling by side scatter at 545 nm; assay type: biochemical, Balb/cJ mice; settings: 400 μM Ca^2+, positive control
Method: tBID was evaluated to determine if it causes any swelling or depolarization that might reflect an opening of the PTP. Swelling of 0.5 mg/ml mitochondria incubated in EB was monitored by changes in side scatter at 545±2.5 nm using LS-50B spectrofluorimeter equipped with magnetic stirring at 25° C. Membrane potential changes of 0.5 mg/ml mitochondria incubated in experimental buffer were monitored from the dequenching of a 0.3 μM Rhodamine 123 (Molecular Probes, OR) solution in a LS-50B spectrofluorimeter at 25° C., using excitation and emission wavelengths set at 503±2.5 nm and 525±5 nm, respectively.
To determine if the BID α6 14mer (SEQ ID NO:1) induced mitochondrial swelling or release of cytochrome c across the mitochondrial outer membrane, mitochondria at 1 mg/ml were incubated in experimental buffer and, where indicated, 20 μM Ca^2+ and 10 μM 14mer were added. Where noted, mitochondria were preincubated with CsA. […] Mitochondria were incubated with 10 μM 14mer in the presence or in the absence of 1 μM CsA. At the indicated time in minutes, mitochondria were pelleted by centrifugation and cytochrome c in the pellet and in the supernatant was determined.

wt mitochondria [3] = experiment: Cytochrome b5-dependent NADH oxidation assay; assay type: biochemical, Balb/cJ mice
Method: (d), mitochondria were preincubated for 2 min with 800 pmol CsA×mg protein^−1. (a), no additions. After 15 min, respiratory chain inhibitors were added and after another 2 minutes NADH fluorescence reading started. Arrow, 20 nmol NADH×mg protein^−1. In (e), 200 nmol mersalyl×mg protein was added 1 min before NADH.
In the cytochrome b5-dependent NADH oxidation assay, 1 mg/ml mitochondria were incubated in EB and treated as indicated. 400 pmol CCCP, 2 nmol rotenone and 1 nmol antimycin A×mg protein^−1 were added after the time indicated and the reaction transferred to a cuvette. After 2 min, 10 μM NADH was added and its oxidation monitored as the decrease in NADH fluorescence in a LS50B spectrofluorimeter (Perkin Elmer) set with λex=366 nm and λem=455 nm, with 5 nm slits.

Wt and DKO MEFs = experiment: TEM morphology of mitochondria in cells after death stimuli; assay type: cell-based; settings: 12 hrs after treatment; 2 μM thapsigargin, 2 μg/ml brefeldin A, 1 μg/ml tunicamycin
Method: For apoptosis induction, MEFs were plated in 24-well plates at a density of 10^4 cells/well and grown for 24 hrs (Wei et al, 2001). Apoptosis was initiated by 2 μM thapsigargin, 2 μg/ml brefeldin A, 1 μg/ml tunicamycin or by 5 hrs of heat shock (43° C. in a humidified atmosphere of 95% air 5% CO2). Apoptosis was detected by flow cytometric detection of annexin V staining (BD Pharmingen) 24 hrs after the induction of cell death.
Wt and DKO MEFs were treated where indicated with brefeldin A or heat shock. After 12 hrs cells were fixed and imaged. Bar, 200 nm. The insets show 2× magnification of the boxed mitochondria. […] Wt and DKO MEFs were treated with the indicated death stimulus and after 12 hrs cells were fixed, stained and TEMs collected. Morphometric analysis was conducted.

[4] = system: calcein loaded mitochondria; experiment: Release of matrix-entrapped calcein (transient PTP opening); assay type: biochemical, Balb/cJ mice; settings: preincubated 3 min with 200 nmol/mg suramin; 320 pmol/mg tBID, 30 min
Method: To assess calcein release, mitochondria suspended in IB without BSA were loaded with 10 nmol×mg protein^−1 calcein-AM (Molecular Probes, Eugene, Oreg.) for 20 mins at room temperature in the dark. Following two washes in IB, the calcein loaded mitochondria were resuspended in IB at a final concentration of 10 mg/ml. 0.5 mg/ml calcein loaded mitochondria were incubated in EB and treated as described. After the indicated time, mitochondria were pelleted. Calcein was measured in an LS-50B spectrofluorimeter (Perkin Elmer) with excitation and emission wavelengths set at 488±2.5 nm and 542±2.5 nm, respectively.
After 30 min mitochondria were spun at 14000 g for 3 min at 4 C and the calcein content in the pellet and in the supernatant was determined. […] To determine if a BID α6 mutation variant, BID α6 mutein (SEQ ID NO:7), would inhibit cytochrome c release, His-tag p22 wt BID and the BID α6 mutein were expressed, purified on a Ni^2+ column, and cleaved with caspase 8.
Mitochondria were loaded with calcein and treated with 10 μM BID α6 14mer. Where noted, mitochondria were pretreated with 1 μM CsA. At the indicated time, mitochondria were pelleted by centrifugation and calcein in the pellet and in the supernatant was determined.

mitochondria [5] = experiment: Adenylate kinase (AK) release from mitochondria; assay type: biochemical, Balb/cJ mice; settings: preincubation: 800 pmol CsA × mg protein^−1 or 0.1 μg × mg protein^−1 anti-BAK Ab
Method: AK release was determined similar to that described for cytochrome c release. AK was quantified measuring its enzymatic activity by assessing the rate of NADH oxidation at 366 nm using a Beckman DU-10 spectrophotometer. 10 μl of the supernatant or pellet were added to a reaction mixture containing 0.5 mM phosphoenolpyruvate, ATP, AMP, 1 mM NADH, and 60 units of pyruvate kinase and lactate dehydrogenase, in 130 mM KCl, 6 mM MgSO4 and 100 mM Tris-Cl. Final volume 0.1 ml, pH 7.4, 25° C. AK release is reported (as described for cytochrome c) as the percentage of the supernatant over the total (pellet plus supernatant).

mitochondria [6] = experiment: Cytochrome c release from isolated liver mitochondria (immunoblot densitometry or ELISA); assay type: biochemical, Balb/cJ mice
Method: Mitochondria were isolated from liver of Balb/cJ mice by standard differential centrifugation, and resuspended in isolation buffer (IB) (0.2 M sucrose, 10 mM Tris-MOPS pH 7.4, 0.1 mM EGTA-Tris, 0.1% delipidated BSA).
At the indicated time, mitochondria were pelleted by centrifugation at 12000×g at 4° C. for 3 min, and resuspended in the same volume of EB. Cytochrome c release was determined either by densitometry (Stratagene Eagle Eye II, BioRad) of immunoblots, or by rat/mouse specific ELISA performed on mitochondrial pellet and supernatant diluted 1:20 in PBS containing 0.5% Triton X-100 (R&D systems, MN). Cytochrome c is reported as the percentage of the supernatant over the total (pellet plus supernatant).
For SDS-PAGE, 20 μg of mitochondrial protein was loaded in each lane of a 12% NuPAGE (NoVex, CA) gel. After separation, proteins were transferred onto PVDF membranes (Immobilon-P, Millipore, Calif.) and membranes were probed as indicated with the following primary antibodies: anti-cytochrome c (Pharmingen, CA, 1:1000); anti-BID (1:1500); anti-BAK (Calbiochem, CA, 1:1000). HRPO-conjugated secondary antibodies (CalTag, CA, 1:2000) were visualized by chemiluminescence (Amersham, N.J.).
Mitochondria were incubated with increasing amounts of digitonin to assess how much cytochrome c was released from IMS by the selective solubilization of the OM (Hoppel and Cooper, 107, 367-375, 1968). To monitor interaction of digitonin with the […], uncoupled respiration in the presence of excess exogenous cytochrome c was assessed. Specifically 0.5 mg/ml mitochondria was incubated in EB with the indicated concentration of digitonin. After 5 minutes, mitochondria were centrifuged and cytochrome c content in the resulting pellet and supernatant were determined as described. Uncoupled JO2, uncoupled respiratory rate was recorded in parallel experiments. After 5 minutes of incubation with the indicated concentration of digitonin, mitochondria were treated with 400 pmol CCCP×mg protein-1 in the presence of 10 nmol cytochrome c×mg protein.

## [Ca+2] [Ca^2+]
Wt mitochondria [1]
  ascorbate-driven respiration: increases the ascorbate-driven respiration
Mitochondria [2]
  mitochondrial swelling: maximal swelling
Wt mitochondria [3]; 200 nmol Ca^2+ × mg protein^−1
  cytochrome b5-dependent NADH oxidation rate: increased the rate of NADH oxidation

## C[C@H]1CCC/C=C/[C@@H]2C[C@H](O)C[C@H]2[C@H](O)/C=C/C(=O)O1 [brefeldin A]
Wt and DKO MEFs
  mitochondrial morphology in cells: frequent mitochondria with Class II morphology

## COC(CNC(=O)c1ccccc1OCC(=O)O)[CH2][Hg][OH] (centres unmarked) [mersalyl]
Wt mitochondria [3]; 200 nmol mersalyl × mg protein added 1 min before NADH
  effect on increases in NADH oxidation: totally inhibited

## Cc1ccc(C(=O)Nc2ccc(S(=O)(=O)O)c3cc(S(=O)(=O)O)cc(S(=O)(=O)O)c23)cc1NC(=O)c1cccc(NC(=O)Nc2cccc(C(=O)Nc3cc(C(=O)Nc4ccc(S(=O)(=O)O)c5cc(S(=O)(=O)O)cc(S(=O)(=O)O)c45)ccc3C)c2)c1 [suramin]
[4]
  effect on tBID-induced calcein release (transient permeability transition): blocked tBID-induced transient permeability transition; also recorded: specifically inhibits calcein release induced by tBID

## C/C=C(/C)C(=O)O[C@H]1C(C)=C2[C@H]([C@@H]1OC(=O)CCCCCCC)[C@@](C)(OC(C)=O)C[C@H](OC(=O)CCC)[C@@]1(O)[C@H]2OC(=O)[C@@]1(C)O [thapsigargin]
Wt and DKO MEFs
  mitochondrial morphology in cells: frequent mitochondria with Class II morphology

## COC(=O)C[C@H](NC(=O)[C@H](C)NC(=O)[C@@H](NC(=O)OCc1ccccc1)C(C)C)C(=O)CF [zVAD-fmk] (Cbz-Val-Ala-Asp(OMe)-CH2F)
Mitochondria [5]
  effect on tBID induced AK release: Neither anti-BCL-XL antibody nor the broad specificity caspase inhibitor zVAD-fmk had any effect
Mitochondria [6]; preincubation: 800 pmol CsA × mg protein^−1 or 0.1 μg × mg protein^−1 anti-BAK Ab
  effect on tBID induced cytochrome c release: Neither anti-BCL-XL antibody nor the broad specificity caspase inhibitor zVAD-fmk had any effect

## NH2-XMLXXXXLLAAAVA-COOH [BID α6 mutein, BID α6 mutation variant where two lysine residues were changed to alanine residues; p7/p15 caspase cleaved]
Mitochondria [6]; 1.6 pmol p7/p15 caspase cleaved BID × mg protein^−1
  cytochrome c released from mitochondria: ~20%
Mitochondria [6]; 1.6 pmol p7/p15 caspase cleaved BID × mg protein^−1, compared with wt p7/p15 BID
  cytochrome c release from mitochondria: impaired release of cytochrome c; also recorded: does not completely release cytochrome c
Wt mitochondria [3]; BID α6 mutein compared to wt
  cytochrome c mobilization (cytochrome b5-dependent NADH oxidation): cytochrome c had not been mobilized; also recorded: fails to mobilize cytochrome c

## tunicamycin
Wt and DKO MEFs
  mitochondrial morphology in cells: frequent mitochondria with Class II morphology

B1: myristoylated p7/p15 BID complex: Wt p22 BID cleaved with recombinant caspase 8 into the active p7/p15 BID complex (protein)
p7: MDSEVSNGSGLGAKHITDLLVFGFLQSSGCTRQELEVLGRELPVQAYWEADLEDELQTD
p15: GSQASRSFNQGRIEPDSESQEEIIHNIARHLAQIGDEMDHNIQPTLVRQLAAQFMNGSLSEEDKRNCLAKALDEVKTAFPRDMENDKAMLIMTMLLAKKVASHAPSLLRDVFHTTVNFINQNLFSYVRNLVRNEMD
modifications: left off: small tags and cut ends
Mitochondria [6]; 0.32 pmol × mg protein^−1
  cytochrome c release from mitochondria: Complete cytochrome c release
